Assay results taken from the CheMixHub viscosity set.

Assay: xn = mol fraction of the nth substance listed

CCCCCCCCn1cc[n+](C)c1.[Cl-] + CCCO
viscosity [mPa·s], 101 kPa
Settings	x2 = 0.1071	x2 = 0.2407	x2 = 0.3036	x2 = 0.4887
298.15 K	7238	–	912	178.5
313.15 K	–	649	334.5	–

CCOC(C)=O + CCCO
viscosity [mPa·s], 101 kPa
Settings	298.15 K	313.15 K
x1 = 0.046	1.597	1.158
x1 = 0.0998	1.337	0.987
x1 = 0.1992	1.007	–
x1 = 0.2966	0.802	–
x1 = 0.4052	0.694	–
x1 = 0.5009	0.601	–
x1 = 0.5421	0.576	0.482
x1 = 0.5948	0.558	0.466
x1 = 0.7034	0.509	–
x1 = 0.7964	0.475	–
x1 = 0.9033	0.448	–
x1 = 0.9542	0.45	–

COC(=O)CC(C)=O + CCCO
viscosity [mPa·s], 101.3 kPa
Settings	x1 = 0.1028	x1 = 0.2021	x1 = 0.3067	x1 = 0.407	x1 = 0.5069	x1 = 0.609	x1 = 0.7057	x1 = 0.8054	x1 = 0.9036
298.15 K	1.497	1.333	1.253	1.221	1.219	1.238	1.278	1.339	1.501
303.15 K	1.337	1.213	1.128	1.102	1.104	1.123	1.163	1.217	1.295
308.15 K	1.198	1.096	1.024	1.003	1.007	1.027	1.062	1.114	1.183

CS(=O)(=O)[O-].C[N+](C)(CCO)CCO + CCCO
Settings	viscosity [mPa·s]
298.15 K, 101.33 kPa, x1 = 0.8978	965

Clc1cccc(Cl)c1 + CCNc1ccccc1
viscosity [mPa·s], 101 kPa
Settings	303.15 K	308.15 K
x2 = 0.0725	1.021	0.954
x2 = 0.1256	1.069	0.996
x2 = 0.1956	1.134	1.051
x2 = 0.2687	1.2	1.108
x2 = 0.3369	1.258	1.157
x2 = 0.4056	1.315	1.205
x2 = 0.4856	1.38	1.259
x2 = 0.5598	1.437	1.308
x2 = 0.6235	1.485	1.347
x2 = 0.6925	1.536	1.389
x2 = 0.7759	1.594	1.436
x2 = 0.8596	1.651	1.482
x2 = 0.9125	1.687	1.511

CCCCCCCCn1cc[n+](C)c1.[Cl-] + CCO
Settings	viscosity [mPa·s]
298.15 K, 101 kPa, x2 = 0.1305	5426

CCOc1ccccc1 + CCO
298.15 K, 101 kPa
Settings	viscosity [mPa·s]
x2 = 0.3183	1.067
x2 = 0.5186	1.035
x2 = 0.6605	1.01
x2 = 0.764	0.997
x2 = 0.8437	0.991
x2 = 0.9064	1
x2 = 0.9609	1.035

COC(=O)CC(C)=O + CCO
viscosity [mPa·s], 101.3 kPa
Settings	x1 = 0.1051	x1 = 0.204	x1 = 0.3085	x1 = 0.4046	x1 = 0.507	x1 = 0.607	x1 = 0.7033	x1 = 0.8022	x1 = 0.902
298.15 K	0.96	0.942	0.965	0.995	1.057	1.121	1.202	1.3	1.422
303.15 K	0.879	0.866	0.883	0.913	0.968	1.027	1.099	1.187	1.294
308.15 K	0.806	0.798	0.814	0.841	0.892	0.946	1.011	1.092	1.186

CS(=O)(=O)[O-].C[N+](C)(CCO)CCO + CCO
Settings	viscosity [mPa·s]
298.15 K, 101.33 kPa, x1 = 0.8954	947.5

OCC(O)CO + CCO
298.15 K, 101 kPa
Settings	viscosity [mPa·s]
x1 = 0.053	1.52
x1 = 0.11	2.23
x1 = 0.18	3.49
x1 = 0.25	5.83
x1 = 0.33	10.4
x1 = 0.43	20.6
x1 = 0.54	45.3
x1 = 0.67	103.3
x1 = 0.82	254

COC(=O)CC(C)=O + CCOC(=O)c1ccccc1
viscosity [mPa·s], 101.33 kPa
Settings	x1 = 0.0992	x1 = 0.2023	x1 = 0.3004	x1 = 0.399	x1 = 0.4991	x1 = 0.5978	x1 = 0.6966	x1 = 0.7979	x1 = 0.8986
298.15 K	1.834	1.796	1.757	1.729	1.7	1.653	1.633	1.598	1.583
303.15 K	1.661	1.627	1.593	1.571	1.543	1.501	1.484	1.452	1.44
308.15 K	1.514	1.484	1.453	1.434	1.408	1.373	1.356	1.328	1.316

COC(=O)CC(C)=O + CCOC(C)=O
viscosity [mPa·s], 101.33 kPa
Settings	x1 = 0.0001	x1 = 0.1006	x1 = 0.1979	x1 = 0.2962	x1 = 0.3988	x1 = 0.4978	x1 = 0.5934	x1 = 0.6964	x1 = 0.7983	x1 = 0.9006
298.15 K	0.433	0.488	0.551	0.624	0.711	0.81	0.916	1.051	1.195	1.376
303.15 K	–	0.462	0.519	0.587	0.666	0.755	0.849	0.97	1.099	1.258
308.15 K	–	0.438	0.491	0.553	0.629	0.706	0.792	0.9	1.015	1.155

CCOc1ccccc1 + CCOCC
298.15 K, 101 kPa
Settings	viscosity [mPa·s]
x2 = 0.0745	1.027
x2 = 0.0975	0.9993
x2 = 0.1855	0.8671
x2 = 0.2523	0.7856
x2 = 0.3026	0.7152
x2 = 0.3516	0.6667
x2 = 0.4501	0.5713
x2 = 0.5106	0.5154
x2 = 0.5579	0.4809
x2 = 0.6048	0.4406
x2 = 0.6882	0.3866
x2 = 0.7485	0.3494
x2 = 0.8303	0.3057
x2 = 0.9004	0.2674

COc1ccc(C=O)cc1 + CCOCCO
viscosity [mPa·s], 101 kPa
Settings	x1 = 0.0825	x1 = 0.1683	x1 = 0.2576	x1 = 0.3506	x1 = 0.4474	x1 = 0.5484	x1 = 0.6539	x1 = 0.7641	x1 = 0.8793
303.15 K	1.521	1.534	1.586	1.682	1.828	2.03	2.294	2.629	3.044
308.15 K	1.459	1.483	1.535	1.618	1.735	1.891	2.09	2.338	2.641
313.15 K	1.33	1.371	1.431	1.512	1.617	1.749	1.912	2.108	2.342
318.15 K	1.251	1.294	1.351	1.423	1.513	1.623	1.755	1.911	2.096
